Results as given in patent EP3725756A2, “COMPOSITIONS WITH IMPROVED UREASE-INHIBITING EFFECT COMPRISING AMINES, OR COLORANTS, AND AN ADDUCT OF THE THREE COMPOUNDS N-(N-BUTYL) THIOPHOSPHORIC ACID TRIAMIDE (NBPT), UREA, AND FORMALDEHYDE” (BASF SE, priority 2019, dated 2020).

Test: physchem
Type: physicochemical
Experimental: "Not dissociable" means that the pKa value (logarithmic measure of the acid dissociation constant) for the reaction alcohol (D) → deprotonated alcohol (D) + H^+ of the hydroxy group in the neutral aqueous phase is more than 9.9, more preferably more than 11, most preferably more than 12, particularly preferably more than 13, for example more than 14 as measured in de-ionized water at 25° C and atmospheric pressure.

## CC(O)CO (stereo not shown) [propane-1,2-diol]
  pKa: 14.9
